Results published in PubChem BioAssay (NCI).
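Exposure lasted 48 hours, with cells grown in 96-well plates and compounds tested at five concentrations. TGI: total growth inhibition.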

Key:
Test in all cases: NCI tumour cell line growth inhibition, 48 h
A498 renal = tested on: A498 renal
A549 NSCLC = tested on: A549 NSCLC
CAKI-1 renal = tested on: CAKI-1 renal
CCRF-CEM leukemia = tested on: CCRF-CEM leukemia
COLO 205 colon = tested on: COLO 205 colon
DLD-1 colon = tested on: DLD-1 colon
DMS 114 small cell lung = tested on: DMS 114 small cell lung
DMS 273 small cell lung = tested on: DMS 273 small cell lung
EKVX NSCLC = tested on: EKVX NSCLC
HCC-2998 colon = tested on: HCC-2998 colon
HCT-116 colon = tested on: HCT-116 colon
HCT-15 colon = tested on: HCT-15 colon
HL-60(TB) leukemia = tested on: HL-60(TB) leukemia
HOP-18 NSCLC = tested on: HOP-18 NSCLC
HOP-62 NSCLC = tested on: HOP-62 NSCLC
HOP-92 NSCLC = tested on: HOP-92 NSCLC
HT29 colon = tested on: HT29 colon
IGROV1 ovarian = tested on: IGROV1 ovarian
K-562 leukemia = tested on: K-562 leukemia
KM12 colon = tested on: KM12 colon
KM20L2 colon = tested on: KM20L2 colon
LOX IMVI melanoma = tested on: LOX IMVI melanoma
M19-MEL melanoma = tested on: M19-MEL melanoma
MALME-3M melanoma = tested on: MALME-3M melanoma
MCF7 breast = tested on: MCF7 breast
MOLT-4 leukemia = tested on: MOLT-4 leukemia
NCI-H226 lung = tested on: NCI-H226 lung
NCI-H23 lung = tested on: NCI-H23 lung
NCI-H460 lung = tested on: NCI-H460 lung
NCI-H522 lung = tested on: NCI-H522 lung
NCI/ADR-RES ovarian = tested on: NCI/ADR-RES ovarian
OVCAR-3 ovarian = tested on: OVCAR-3 ovarian
OVCAR-4 ovarian = tested on: OVCAR-4 ovarian
OVCAR-5 ovarian = tested on: OVCAR-5 ovarian
OVCAR-8 ovarian = tested on: OVCAR-8 ovarian
P388 leukemia = tested on: P388 leukemia
P388/ADR leukemia = tested on: P388/ADR leukemia
RPMI-8226 leukemia = tested on: RPMI-8226 leukemia
RXF 393 renal = tested on: RXF 393 renal
SF-268 CNS = tested on: SF-268 CNS
SF-295 CNS = tested on: SF-295 CNS
SF-539 CNS = tested on: SF-539 CNS
SK-MEL-2 melanoma = tested on: SK-MEL-2 melanoma
SK-MEL-28 melanoma = tested on: SK-MEL-28 melanoma
SK-MEL-5 melanoma = tested on: SK-MEL-5 melanoma
SK-OV-3 ovarian = tested on: SK-OV-3 ovarian
SN12C renal = tested on: SN12C renal
SN12K1 renal = tested on: SN12K1 renal
SNB-19 CNS = tested on: SNB-19 CNS
SNB-75 CNS = tested on: SNB-75 CNS
SNB-78 CNS = tested on: SNB-78 CNS
SW-620 colon = tested on: SW-620 colon
U251 CNS = tested on: U251 CNS
UACC-257 melanoma = tested on: UACC-257 melanoma
UACC-62 melanoma = tested on: UACC-62 melanoma
UO-31 renal = tested on: UO-31 renal

**Q.** Which results are given for `CCCCc1[nH]ccc2c(C)c3nc4ccccc4c3cc12`?
**A.** TGI (A498 renal): 13.4 µM; TGI (A549 NSCLC): 14.1 µM; TGI (CAKI-1 renal): 6.33 µM; TGI (CCRF-CEM leukemia): 10.6 µM; TGI (COLO 205 colon): 3.39 µM; TGI (DLD-1 colon): 13.3 µM; TGI (DMS 114 small cell lung): 4.14 µM; TGI (DMS 273 small cell lung): 2.4 µM; TGI (EKVX NSCLC): 13.6 µM; TGI (HCC-2998 colon): 8.19 µM; TGI (HCT-116 colon): 4.76 µM; TGI (HCT-15 colon): 8.49 µM; TGI (HL-60(TB) leukemia): 3.45 µM; TGI (HOP-18 NSCLC): 6.83 µM; TGI (HOP-62 NSCLC): 14.5 µM; TGI (HOP-92 NSCLC): 12.4 µM; TGI (HT29 colon): 8.85 µM; TGI (IGROV1 ovarian): 16.9 µM; TGI (K-562 leukemia): 5.98 µM; TGI (KM12 colon): 12.7 µM; TGI (KM20L2 colon): 10.8 µM; TGI (LOX IMVI melanoma): 4.3 µM; TGI (M19-MEL melanoma): 10.9 µM; TGI (MALME-3M melanoma): 14.5 µM; TGI (MCF7 breast): 10.8 µM; TGI (MOLT-4 leukemia): 4.72 µM; TGI (NCI-H226 lung): 24.6 µM; TGI (NCI-H23 lung): 16 µM; TGI (NCI-H460 lung): 5.03 µM; TGI (NCI-H522 lung): 6.75 µM; TGI (NCI/ADR-RES ovarian): 5.87 µM; TGI (OVCAR-3 ovarian): 10.8 µM; TGI (OVCAR-4 ovarian): 13.5 µM; TGI (OVCAR-5 ovarian): 17.2 µM; TGI (OVCAR-8 ovarian): 9.49 µM; TGI (P388 leukemia): 4.13 µM; TGI (P388/ADR leukemia): 7.29 µM; TGI (RPMI-8226 leukemia): 6.77 µM; TGI (RXF 393 renal): 7.61 µM; TGI (SF-268 CNS): 21.6 µM; TGI (SF-295 CNS): 8.41 µM; TGI (SF-539 CNS): 7.45 µM; TGI (SK-MEL-2 melanoma): 11.4 µM; TGI (SK-MEL-28 melanoma): 11.8 µM; TGI (SK-MEL-5 melanoma): 6.52 µM; TGI (SK-OV-3 ovarian): 16.8 µM; TGI (SN12C renal): 19.4 µM; TGI (SN12K1 renal): 5.75 µM; TGI (SNB-19 CNS): 11.6 µM; TGI (SNB-75 CNS): 15.8 µM; TGI (SNB-78 CNS): 21.3 µM; TGI (SW-620 colon): 6.78 µM; TGI (U251 CNS): 12.8 µM; TGI (UACC-257 melanoma): 5.13 µM; TGI (UACC-62 melanoma): 8.75 µM; TGI (UO-31 renal): 10.9 µM
